Laboratory results: patent US20260240878A1, “PTP1B/TC-PTP DUAL INHIBITORS AND PROTEIN DEGRADERS” (Purdue Research Foundation, priority 2023, published 2026)
*1 amine or outer side, *2 acyl side, *3 side chain or, on linkers, in order; H or OH if unused. Where a SMILES comes first, the peptide text is derived from it. [ ]: non-standard residue; d: D form. The star is where a group is joined. NHBn(4-(4-Me-thiazol-5-yl)) = Cc1ncsc1-c1ccc(CN*)cc1; NHCH2(1,3-C6H4)CH2CO = O=C(Cc1cccc(CN[*:1])c1)[*:2]; F2Pmp = N[C@@H](Cc1ccc(C(F)(F)P(=O)(O)O)cc1)C(=O)O; Phenylacetyl(4-OH,3-OMe) = COc1cc(CC(=O)*)ccc1O; Benzoyl(3-Br,4-Me) = Cc1ccc(C(=O)*)cc1Br; Hyp = O=C(O)[C@@H]1C[C@@H](O)CN1; X2 = O=C(CCN1CCN([*:1])CC1)[*:2]; X3 = O=C(CCC1CCN([*:1])CC1)[*:2]; Tle = CC(C)(C)[C@H](N)C(=O)O; 4Amb = NCc1ccc(C(=O)O)cc1; PEG1 = NCCOCCC(=O)O

How the values were obtained:
[1] = biological target: T1, PTP1B (Homo sapiens, UniProt P18031); test: Degradation assay in HEK293 cells (immunoblotting); type: cell-based; design: endogenous in cells; host or cells: HEK293; conditions: 0.2 μM degrader, 16 hours
T1 sequence (P18031 1-435): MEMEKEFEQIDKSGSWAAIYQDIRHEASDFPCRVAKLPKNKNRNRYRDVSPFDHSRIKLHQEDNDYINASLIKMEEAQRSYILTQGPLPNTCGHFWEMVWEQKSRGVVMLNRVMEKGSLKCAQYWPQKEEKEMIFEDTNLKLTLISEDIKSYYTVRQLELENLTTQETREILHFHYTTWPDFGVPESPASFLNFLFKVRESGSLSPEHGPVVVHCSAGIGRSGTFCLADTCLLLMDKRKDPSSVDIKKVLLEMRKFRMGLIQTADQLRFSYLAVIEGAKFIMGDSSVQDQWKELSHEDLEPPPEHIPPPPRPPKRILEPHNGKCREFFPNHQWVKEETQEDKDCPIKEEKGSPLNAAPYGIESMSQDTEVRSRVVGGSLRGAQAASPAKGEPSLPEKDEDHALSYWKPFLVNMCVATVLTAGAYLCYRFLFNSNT
Experimental: (§1) HEK293. MIAPaCa-2, HepG2, U2OS, H116, MEF, B16F10, and MC38 cells, were grown in DMEM, while Jurkat and H358 cells were grown in RPMI 1640 supplemented with 10% fetal bovine serum, penicillin (50 units/mL), and streptomycin (50 μg/mL) in a 37° C. incubator containing 5% CO2. 20 ng/ml human (Biolegend #713906) or mouse (Biolegend #714006) Interferon-γ were used for JAK/STAT pathway stimulation.
(§2) Tissues or cultured cells were lysed with ice-cold lysis buffer (50 mM Tris (pH 8.0, 150 mM NaCl, 10% Glycerol, 1% Triton-X-100) supplied with phosphatase inhibitor (Bimake) and protease inhibitor mixture (Roche Applied Science). Equal amounts of protein were resolved by SDS-PAGE, transferred to nitrocellulose membrane, and subjected to immunoblotting. Antibodies used in this study include anti-following proteins: pSTAT1^Tyr701 (Cell Signaling Technology #9167, 1:3000), GAPDH (Cell Signaling Technology #97166, 1:5000), pJAK1^Tyr1034/1035 (Cell Signaling Technology #74129, 1:1000), pJAK2^Tyr1007/1008 (Cell Signaling Technology #3776, 1:1000), TC-PTP (Abcam #ab180764, 1:3000). PTP1B (Abcam #ab244207, 1:1500).
(§3) Degradation assay was conducted in HEK293 cells with 1 μM degrader and 24 hours incubation.
(§4) The degradation assay was conducted in HEK293 cells with 0.2 μM degrader and 16 hours incubation.

[2] = biological target: T2, TC-PTP (Homo sapiens, UniProt P17706); test: Degradation assay in HEK293 cells (immunoblotting); type: cell-based; design: endogenous in cells; host or cells: HEK293; conditions: 0.2 μM degrader, 16 hours, read-out: % Protein Degradation TC-PTP
T2 sequence (P17706 1-415): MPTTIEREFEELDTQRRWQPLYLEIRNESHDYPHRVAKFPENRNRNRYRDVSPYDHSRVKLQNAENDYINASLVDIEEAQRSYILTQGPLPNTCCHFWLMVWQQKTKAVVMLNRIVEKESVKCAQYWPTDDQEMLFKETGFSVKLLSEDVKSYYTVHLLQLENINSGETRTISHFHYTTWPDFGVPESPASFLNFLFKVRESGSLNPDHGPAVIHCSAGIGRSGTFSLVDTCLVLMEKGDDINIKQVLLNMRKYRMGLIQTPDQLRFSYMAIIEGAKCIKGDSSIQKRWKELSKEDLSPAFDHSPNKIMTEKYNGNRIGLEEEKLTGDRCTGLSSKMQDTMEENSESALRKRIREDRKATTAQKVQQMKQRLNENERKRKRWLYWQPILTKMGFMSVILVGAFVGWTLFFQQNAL
Experimental: as §1, §2, §3, §4

[3] = biological target: T1, PTP1B; test: PTP activity assay with pNPP substrate (IC50, Ki, mode of inhibition); type: biochemical; conditions: pNPP 2 mM, pH 7.0, 25° C.; read-out: IC50, nM PTP1B
Experimental: (§5) PTP activity was assayed using p-nitrophenyl phosphate (pNPP) as a substrate in DMG buffer (50 mM DMG. pH 7.0, 1 mM EDTA, 150 mM NaCl, 2 mM DTT, 0.1 mg/mL BSA) at 25° C. The assays were performed in 96-well plates. Normally, to determine the IC50 values, the reaction was initiated by the addition of enzyme (for PTP1B and TCPTP, the final concentration was 0.4 nM, for other PTPs, the final concentration was 10 nM) to a reaction mixture (0.2 mL) containing 2 mM (Km for the substrate) pNPP with various concentrations of inhibitors (see FIG. 1). The reaction rate was measured using a SpectraMax Plus 384 Microplate Spectrophotometer (Molecular Devices). Data were fitted using SigmaPlot Enzyme Kinetics Module (Systat Software, Inc.). To determine the mode of inhibition, the reactions were initiated by the addition of enzyme (final concentration for TC-PTP and PTP1B was 0.4 nM) to the reaction mixtures (0.2 mL) containing various concentrations of pNPP with different concentrations of the inhibitor. Data were fitted using SigmaPlot Enzyme Kinetics Module (Systat Software. Inc.).

[4] = biological target: T2, TC-PTP; test: as above; type: biochemical; conditions: pNPP 2 mM, pH 7.0, 25° C.; read-out: IC50, nM TC-PTP
Experimental: as §5

COc1cc(CC(=O)N[C@@H](Cc2ccccc2)C(=O)N[C@@H](Cc2ccc(C(F)(F)P(=O)(O)O)cc2)C(=O)N[C@@H](CCCCNC(=O)c2ccc(C)c(Br)c2)C(=O)NCCOCCC(=O)N[C@H](C(=O)N2C[C@H](O)C[C@H]2C(=O)NCc2ccc(-c3scnc3C)cc2)C(C)(C)C)ccc1O [Compound 28, ((4-((2S,5S,15S)-5-(4-(3-bromo-4-methylbenzamido)butyl)-15-((2S,4R)-4-hydroxy-2-((4-(4-methylthiazol-5-yl)benzyl)carbamoyl)pyrrolidine-1-carbonyl)-2-((S)-2-(2-(4-hydroxy-3-methoxyphenyl)acetamido)-3-phenylpropanamido)-16,16-dimethyl-3,6,13-trioxo-10-oxa-4,7,14-triazaheptadecyl)phenyl)difluoromethyl)phosphonic Acid] ({Phenylacetyl(4-OH,3-OMe)}-F[F2Pmp]K(Benzoyl(3-Br,4-Me))[PEG1][Tle][Hyp]-{NHBn(4-(4-Me-thiazol-5-yl))})
% Protein Degradation PTP1B [1]: 45% | percent TC-PTP degradation at 0.2 µM [2]: 47% | IC50 [3]: 15.4 ± 3.3 nM | IC50 [4]: 11.2 ± 1.3 nM

COc1cc(CC(=O)N[C@@H](Cc2ccccc2)C(=O)N[C@@H](Cc2ccc(C(F)(F)P(=O)(O)O)cc2)C(=O)N[C@@H](CCCCNC(=O)c2ccc(C)c(Br)c2)C(=O)NCc2cccc(CC(=O)N[C@H](C(=O)N3C[C@H](O)C[C@H]3C(=O)NCc3ccc(-c4scnc4C)cc3)C(C)(C)C)c2)ccc1O [Compound 48, ((4-((S)-3-(((S)-6-(3-bromo-4-methylbenzamido)-1-((3-(2-(((S)-1-((2S,4R)-4-hydroxy-2-((4-(4-methylthiazol-5-yl)benzyl)carbamoyl)pyrrolidin-1-yl)-3,3-dimethyl-1-oxobutan-2-yl)amino)-2-oxoethyl)benzyl)amino)-1-oxohexan-2-yl)amino)-2-((S)-2-(2-(4-hydroxy-3-methoxyphenyl)acetamido)-3-phenylpropanamido)-3-oxopropyl)phenyl)difluoromethyl)phosphonic Acid] ({Phenylacetyl(4-OH,3-OMe)}-F[F2Pmp]K(Benzoyl(3-Br,4-Me))[NHCH2(1,3-C6H4)CH2CO][Tle][Hyp]-{NHBn(4-(4-Me-thiazol-5-yl))})
% Protein Degradation PTP1B [1]: 75% | percent TC-PTP degradation at 0.2 µM [2]: 70% | IC50 [3]: 16.7 ± 3.3 nM | IC50 [4]: 11.5 ± 0.6 nM

COc1cc(CC(=O)N[C@@H](Cc2ccccc2)C(=O)N[C@@H](Cc2ccc(C(F)(F)P(=O)(O)O)cc2)C(=O)N[C@@H](CCCCNC(=O)c2ccc(C)c(Br)c2)C(=O)NCc2ccc(C(=O)N[C@H](C(=O)N3C[C@H](O)C[C@H]3C(=O)NCc3ccc(-c4scnc4C)cc3)C(C)(C)C)cc2)ccc1O [Compound 54, ((4-((S)-3-(((S)-6-(3-bromo-4-methylbenzamido)-1-((4-(((S)-1-((2S,4R)-4-hydroxy-2-((4-(4-methylthiazol-5-yl)benzyl)carbamoyl)pyrrolidin-1-yl)-3,3-dimethyl-1-oxobutan-2-yl)carbamoyl)benzyl)amino)-1-oxohexan-2-yl)amino)-2-((S)-2-(2-(4-hydroxy-3-methoxyphenyl)acetamido)-3-phenylpropanamido)-3-oxopropyl)phenyl)difluoromethyl)phosphonic Acid] ({Phenylacetyl(4-OH,3-OMe)}-F[F2Pmp]K(Benzoyl(3-Br,4-Me))[4Amb][Tle][Hyp]-{NHBn(4-(4-Me-thiazol-5-yl))})
% Protein Degradation PTP1B [1]: 24% | percent TC-PTP degradation at 0.2 µM [2]: 37% | IC50 [3]: 51.2 ± 14.4 nM | IC50 [4]: 21.3 ± 1.7 nM

COc1cc(CC(=O)N[C@@H](Cc2ccccc2)C(=O)N[C@@H](Cc2ccc(C(F)(F)P(=O)(O)O)cc2)C(=O)N[C@@H](CCCCNC(=O)c2ccc(C)c(Br)c2)C(=O)N2CCN(CCC(=O)N[C@H](C(=O)N3C[C@H](O)C[C@H]3C(=O)NCc3ccc(-c4scnc4C)cc3)C(C)(C)C)CC2)ccc1O [Compound 56, ((4-((S)-3-(((S)-6-(3-bromo-4-methylbenzamido)-1-(4-(3-(((S)-1-((2S,4R)-4-hydroxy-2-((4-(4-methylthiazol-5-yl)benzyl)carbamoyl)pyrrolidin-1-yl)-3,3-dimethyl-1-oxobutan-2-yl)amino)-3-oxopropyl)piperazin-1-yl)-1-oxohexan-2-yl)amino)-2-((S)-2-(2-(4-hydroxy-3-methoxyphenyl)acetamido)-3-phenylpropanamido)-3-oxopropyl)phenyl)difluoromethyl)phosphonic Acid] ({Phenylacetyl(4-OH,3-OMe)}-F[F2Pmp]K(Benzoyl(3-Br,4-Me))[X2][Tle][Hyp]-{NHBn(4-(4-Me-thiazol-5-yl))})
% Protein Degradation PTP1B [1]: 30% | percent TC-PTP degradation at 0.2 µM [2]: 14% | IC50 [3]: 13.7 ± 1.9 nM | IC50 [4]: 12 ± 0.8 nM

COc1cc(CC(=O)N[C@@H](Cc2ccccc2)C(=O)N[C@@H](Cc2ccc(C(F)(F)P(=O)(O)O)cc2)C(=O)N[C@@H](CCCCNC(=O)c2ccc(C)c(Br)c2)C(=O)N2CCC(CCC(=O)N[C@H](C(=O)N3C[C@H](O)C[C@H]3C(=O)NCc3ccc(-c4scnc4C)cc3)C(C)(C)C)CC2)ccc1O [Compound 58, ((4-((S)-3-(((S)-6-(3-bromo-4-methylbenzamido)-1-(4-(3-(((S)-1-((2S,4R)-4-hydroxy-2-((4-(4-methylthiazol-5-yl)benzyl)carbamoyl)pyrrolidin-1-yl)-3,3-dimethyl-1-oxobutan-2-yl)amino)-3-oxopropyl)piperidin-1-yl)-1-oxohexan-2-yl)amino)-2-((S)-2-(2-(4-hydroxy-3-methoxyphenyl)acetamido)-3-phenylpropanamido)-3-oxopropyl)phenyl)difluoromethyl)phosphonic Acid] ({Phenylacetyl(4-OH,3-OMe)}-F[F2Pmp]K(Benzoyl(3-Br,4-Me))[X3][Tle][Hyp]-{NHBn(4-(4-Me-thiazol-5-yl))})
% Protein Degradation PTP1B [1]: 26% | percent TC-PTP degradation at 0.2 µM [2]: 32% | IC50 [3]: 8.9 ± 0.5 nM | IC50 [4]: 8 ± 0.7 nM
